Test results published in US12486284B2, “Ubiquitin-specific protease inhibitor and preparation method therefor and use thereof” (CHASER THERAPEUTICS, INC., priority 2019, dated 2025).
Read-outs that look alike come from different tables or passages of the source.

Experiments:
[1] = target: T1, USP28 (Homo sapiens, UniProt Q96RU2); experiment: USP28 activity measured using ubiquitin-rhodamine 110 method; format: biochemical; conditions: for IC50: purified USP28 4 nM, ubiquitin-rhodamine 110 125 nM, 30 min preincubation; for IC50(F)/IC50(E) USP28: ratio of IC50 of related 3-NH2 compound (F) to IC50 of 3-NHMe compound disclosed herein (E)
T1 construct: purchased R&D Systems
T1 sequence (Q96RU2 1-1077): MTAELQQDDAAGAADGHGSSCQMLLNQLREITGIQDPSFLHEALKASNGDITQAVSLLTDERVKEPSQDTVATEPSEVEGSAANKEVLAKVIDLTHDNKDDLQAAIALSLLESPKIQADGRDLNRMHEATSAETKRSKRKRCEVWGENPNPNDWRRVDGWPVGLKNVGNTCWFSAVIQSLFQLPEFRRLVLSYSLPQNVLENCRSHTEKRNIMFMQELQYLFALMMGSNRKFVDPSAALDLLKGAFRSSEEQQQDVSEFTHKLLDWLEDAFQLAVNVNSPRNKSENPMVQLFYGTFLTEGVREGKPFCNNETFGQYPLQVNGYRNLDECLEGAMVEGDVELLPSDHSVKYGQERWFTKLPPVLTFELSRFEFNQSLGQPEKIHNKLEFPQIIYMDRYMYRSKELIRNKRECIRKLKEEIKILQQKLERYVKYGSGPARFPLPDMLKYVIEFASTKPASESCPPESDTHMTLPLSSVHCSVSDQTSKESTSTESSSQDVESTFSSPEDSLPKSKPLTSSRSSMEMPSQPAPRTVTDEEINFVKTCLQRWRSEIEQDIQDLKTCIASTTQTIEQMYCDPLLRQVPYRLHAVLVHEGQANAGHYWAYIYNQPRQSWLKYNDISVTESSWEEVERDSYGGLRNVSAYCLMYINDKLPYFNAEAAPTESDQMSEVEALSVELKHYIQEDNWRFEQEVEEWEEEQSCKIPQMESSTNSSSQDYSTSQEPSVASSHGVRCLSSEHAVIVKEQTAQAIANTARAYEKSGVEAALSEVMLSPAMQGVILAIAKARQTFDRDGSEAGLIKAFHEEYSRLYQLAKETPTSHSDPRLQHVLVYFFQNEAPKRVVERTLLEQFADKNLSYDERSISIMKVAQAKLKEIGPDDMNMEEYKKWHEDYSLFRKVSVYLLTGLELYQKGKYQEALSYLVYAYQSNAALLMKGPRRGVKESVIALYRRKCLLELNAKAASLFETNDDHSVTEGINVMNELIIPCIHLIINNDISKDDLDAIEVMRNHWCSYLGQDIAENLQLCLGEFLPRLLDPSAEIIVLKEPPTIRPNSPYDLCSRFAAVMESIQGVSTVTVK
Description: USP28 activity was measured using ubiquitin-rhodamine 110 method.
(§1) Purified USP28 and the ubiquitin-rhodamine 110 substrate used for measuring DUBs activity were both from R&D Systems. Test compounds were first dissolved in DMSO to prepare a 10 mM stock solution, and then the stock solution was diluted with a buffer solution [containing 20 mM Tris-HCl (pH 8.0), 2 mM CaCl2), 3 mM BME, 0.01% Prionix, 0.01% Triton X-100] to the desired concentration (with DMSO content less than or equal to 0.5%). The dilution was mixed well with USP28 (final concentration 4 nM) in a 96-well plate and incubated at room temperature for 30 min, and then added with the substrate (ubiquitin-rhodamine 110) to 125 nM. The final volume of the whole reaction system was 20 μL. The released fluorescence (excitation wavelength 485 nm, emission wavelength 535 nm) was detected immediately on a microplate reader after the addition of the substrate. The inhibitory rate of the test compound against USP28 was calculated according to the following formula: Inhibition %=1−[(test compound+fluorescence value of substrate−fluorescence value of test compound (no substrate))/mean fluorescence value of DMSO control group−fluorescence value of test compound (no substrate)]
According to the inhibitory rates of the test compound against USP28 under different concentrations, IC50 was calculated.

[2] = target: T2, USP25 (Homo sapiens, UniProt Q9UHP3); experiment: USP25 activity measured using ubiquitin-rhodamine 110 method; format: biochemical; conditions: for IC50: purified USP25 15 nM, ubiquitin-rhodamine 110 125 nM, 30 min preincubation; for IC50(F)/IC50(E) USP25: ratio of IC50 of related 3-NH2 compound (F) to IC50 of 3-NHMe compound disclosed herein (E)
T2 construct: purchased R&D Systems
T2 sequence (Q9UHP3 1-1055): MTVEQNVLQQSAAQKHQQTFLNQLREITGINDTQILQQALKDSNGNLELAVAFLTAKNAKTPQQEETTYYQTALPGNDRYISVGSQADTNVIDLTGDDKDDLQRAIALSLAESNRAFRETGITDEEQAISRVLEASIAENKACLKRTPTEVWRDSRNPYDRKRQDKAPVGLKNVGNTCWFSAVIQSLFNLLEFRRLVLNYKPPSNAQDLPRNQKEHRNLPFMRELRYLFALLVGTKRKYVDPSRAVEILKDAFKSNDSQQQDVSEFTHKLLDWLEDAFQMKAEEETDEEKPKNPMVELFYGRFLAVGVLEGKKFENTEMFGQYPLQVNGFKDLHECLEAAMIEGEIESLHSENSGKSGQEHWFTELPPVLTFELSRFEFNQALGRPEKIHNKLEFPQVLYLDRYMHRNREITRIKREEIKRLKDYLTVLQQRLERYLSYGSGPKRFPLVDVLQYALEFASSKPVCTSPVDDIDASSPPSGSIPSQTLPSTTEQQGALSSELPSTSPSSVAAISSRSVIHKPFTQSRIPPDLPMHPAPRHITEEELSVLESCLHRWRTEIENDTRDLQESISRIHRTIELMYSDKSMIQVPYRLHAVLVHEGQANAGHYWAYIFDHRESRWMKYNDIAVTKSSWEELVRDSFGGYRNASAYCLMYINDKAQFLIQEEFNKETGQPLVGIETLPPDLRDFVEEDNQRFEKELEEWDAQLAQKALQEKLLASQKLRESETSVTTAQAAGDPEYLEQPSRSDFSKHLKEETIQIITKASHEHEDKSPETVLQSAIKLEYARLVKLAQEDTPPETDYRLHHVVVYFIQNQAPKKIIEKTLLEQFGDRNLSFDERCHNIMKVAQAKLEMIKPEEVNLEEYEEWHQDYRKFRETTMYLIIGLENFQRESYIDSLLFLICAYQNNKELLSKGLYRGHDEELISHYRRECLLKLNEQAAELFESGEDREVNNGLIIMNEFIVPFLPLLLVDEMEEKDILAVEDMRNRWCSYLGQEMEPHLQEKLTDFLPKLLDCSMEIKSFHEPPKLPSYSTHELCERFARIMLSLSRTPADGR
Description: USP25 activity was measured using ubiquitin-rhodamine 110 method.
as §1, with “Purified USP25” for “Purified USP28”, “with USP25” for “with USP28”, “concentration 15” for “concentration 4”, “the substrate, and the” for “the substrate. The”, “against USP25” for “against USP28”
As in Example 11, according to the inhibitory rates of the test compound against USP25 under different concentrations, IC50 was calculated.

[3] = read-out: Inhibitory activity against USP28 (IC50)
[4] = read-out: Inhibitory activity against USP25 (IC50)
[5] = Inhibitory activity against USP28 (IC50)
[6] = Inhibitory activity against USP25 (IC50)

IC50 [1, 3]	Compound	IC50 [2, 4]	IC50(F)/IC50(E) USP28 [1]	IC50(F)/IC50(E) USP25 [2]	IC50 [1, 5]	IC50 [2, 6]
< 0.1 µM	CNc1c(C(=O)NCCc2c[nH]c3ccccc23)sc2nc(C(F)(F)F)ccc12 [Compound I-54]	5 to 10 µM				
1 to 5 µM	CNc1c(C(=O)N[C@H](COC)Cc2c[nH]c3ccccc23)sc2nc(C)ccc12 [Compound I-55]	> 10 µM				
0.1 to 1 µM	CNc1c(C(=O)NCCc2coc3ccccc23)sc2nc(C)ccc12 [Compound I-56]	1 to 5 µM				
< 0.1 µM	CNc1c(C(=O)NCCc2csc3ccccc23)sc2nc(C)ccc12 [Compound I-57]	5 to 10 µM				
0.1 to 1 µM	CNc1c(C(=O)NCCc2ccc(OC)c(OC)c2)sc2nc(C)ccc12 [Compound I-58]	> 10 µM	5.0	>8		
< 0.1 µM	CCc1nc2sc(C(=O)NCCc3ccc(OC)c(OC)c3)c(NC)c2c(C(F)(F)F)c1C [Compound I-59]	1 to 5 µM				
< 0.1 µM	CNc1c(C(=O)NCCc2ccc(OC)c(OC)c2)sc2nc(C)cc(C)c12 [Compound I-60]	5 to 10 µM				
1 to 5 µM	CNc1c(C(=O)N[C@@H](C)Cc2ccc(Br)cc2)sc2nc(C)ccc12 [Compound I-61]	> 10 µM				
0.1 to 1 µM	CNc1c(C(=O)N[C@H](C)Cc2ccc(Br)cc2)sc2nc(C)ccc12 [Compound I-62]	> 10 µM				
	CNc1c(C(=O)N[C@H](C)Cc2ccc(N3C[C@H]4CC[C@@H](C3)N4)cc2)sc2nc(C)ccc12 [Compound I-64]	0.1 to 1 µM			< 0.1 µM	
	CNc1c(C(=O)NC[C@@H](F)c2ccc(N3C[C@H]4CC[C@@H](C3)N4)cc2)sc2nc(C)ccc12 [Compound I-69]	0.1 to 1 µM			< 0.1 µM	
	CNc1c(C(=O)NCCc2ccc(N3C[C@H]4CC[C@@H](C3)N4)cc2)sc2nc(C)cnc12 [Compound I-71]	5 to 10 µM			< 0.1 µM	
	CCc1cnc2c(NC)c(C(=O)NCCc3ccc(N4C[C@H]5CC[C@@H](C4)N5)cc3)sc2n1 [Compound I-72]	0.1 to 1 µM			< 0.1 µM	
	CNc1c(C(=O)NCCc2ccc(N3CC4CCC(C3)N4)cc2)sc2nc(C(C)C)cnc12 [Compound I-73]	0.1 to 1 µM			< 0.1 µM	
	CCc1nc2sc(C(=O)NCCc3ccc(N4C[C@H]5CC[C@@H](C4)N5)cc3)c(NC)c2nc1C [Compound I-74]				< 0.1 µM	< 0.1 µM
	CNc1c(C(=O)NCCc2ccc(N3C[C@H]4CC[C@@H](C3)N4)c(Cl)c2)sc2nc(C)cnc12 [Compound I-75]				< 0.1 µM	< 0.1 µM
	CNc1c(C(=O)NCCc2ccc(N3C[C@H]4CC[C@@H](C3)N4)c(F)c2)sc2nc(C)cnc12 [Compound I-76]		33.3	>20	< 0.1 µM	< 0.1 µM
	CNc1c(C(=O)NCCc2ccc(N3C[C@H]4CC[C@@H](C3)N4)cc2F)sc2nc(C)cnc12 [Compound I-77]				< 0.1 µM	< 0.1 µM
	CNc1c(C(=O)NCCc2cc(F)c(N3C[C@H]4CC[C@@H](C3)N4)cc2F)sc2nc(C)cnc12 [Compound I-78]				< 0.1 µM	< 0.1 µM
	CNc1c(C(=O)NC[C@H](C)c2cc(F)c(N3C[C@H]4CC[C@@H](C3)N4)cc2F)sc2nc(C)cnc12 [Compound I-79]	0.1 to 1 µM			< 0.1 µM	

Compound	IC50 [1, 3]	IC50 [2, 4]	IC50(F)/IC50(E) USP28 [1]	IC50(F)/IC50(E) USP25 [2]	IC50 [1, 5]	IC50 [2, 6]
CNc1c(C(=O)N[C@@H](C)Cc2ccc(N3C[C@H]4CC[C@@H](C3)N4)cc2)sc2nc(C)ccc12 [Compound I-63]	0.1 to 1 µM	> 10 µM				
CNc1c(C(=O)N[C@H](COC)Cc2ccc(N3C[C@H]4CC[C@@H](C3)N4)cc2)sc2nc(C)ccc12 [Compound I-65]	0.1 to 1 µM	5 to 10 µM				
CNc1c(C(=O)N[C@@H](Cc2ccc(N3C[C@H]4CC[C@@H](C3)N4)cc2)C(F)(F)F)sc2nc(C)ccc12 [Compound I-66]	0.1 to 1 µM	0.1 to 1 µM				
CNc1c(C(=O)NC[C@H](C)c2ccc(N3C[C@H]4CC[C@@H](C3)N4)cc2)sc2nc(C)ccc12 [Compound I-67]	0.1 to 1 µM	0.1 to 1 µM				
CNc1c(C(=O)NC[C@@H](C)c2ccc(N3C[C@H]4CC[C@@H](C3)N4)cc2)sc2nc(C)ccc12 [Compound I-68]	0.1 to 1 µM	0.1 to 1 µM				
CNc1c(C(=O)NCCc2ccc(N3C[C@H]4CC[C@@H](C3)N4)cc2)sc2nccnc12 [Compound I-70]	1 to 5 µM	> 10 µM				
CNc1c(C(=O)NCCc2ccc(N3C[C@H]4CC[C@@H](C3)N4)cc2)sc2nc(C#N)ccc12 [Compound I-80]	1 to 5 µM	1 to 5 µM				
CNc1c(C(=O)NCCc2ccc(N3C[C@H]4CC[C@@H](C3)N4)cc2F)sc2nc(Cl)cnc12 [Compound I-81]	1 to 5 µM	> 10 µM				
